Values belong to the compound of their own block, whether it stands above or below them. The source made the active and inactive calls. The rule behind the calls is not given here.
Assays:
[1] = biological target: Transcriptional activator Myb (Homo sapiens, UniProt P10242); test: Inhibition of c-Myb (unknown origin) expressed in HEK293T cells measured after 16 hrs by steady-glo luciferase reporter gene assay; assay type: cell-based
KB-V1 [2] = test: Cytotoxicity against human multidrug-resistant KB-V1 cells assessed as reduction in cell viability measured after 72 hrs in presence of verapamil by MTT assay; assay type: functional, cell-based; details: KB-V1, 72 h
[3] = Cytotoxicity against human U-87 cells assessed as reduction in cell viability measured after 72 hrs by MTT assay; assay type: functional, cell-based, U-87MG ATCC; details: U-87 MG
[4] = Cytotoxicity against human EA.hy 926 cells assessed as reduction in cell viability measured after 72 hrs by MTT assay; assay type: toxicity, cell-based
Sus scrofa = species on record: Sus scrofa; test: Inhibition of porcine brain tubulin polymerization at 5 uM measured at 10 mins interval for 100 mins by turbidimetric assay; assay type: tissue-based
HeLa = test: Cytotoxicity against human HeLa cells assessed as reduction in cell viability measured after 72 hrs by MTT assay; assay type: functional, cell-based
MCF7 = test: Cytotoxicity against human MCF7 cells assessed as reduction in cell viability measured after 72 hrs by MTT assay; assay type: functional, cell-based; details: MCF7, 72 h
HT-29 = test: Cytotoxicity against human HT-29 cells assessed as reduction in cell viability measured after 72 hrs by MTT assay; assay type: functional, cell-based; details: HT-29, 72 h
[5] = Effect on angiogenic activity in 24 hrs post-fertilized fil1/EGFP transgenic zebrafish embryo assessed as subintestinal vessel area at 100 nM measured after 48 hrs by fluorescence microscopy (reference value: 100%); assay type: toxicity, Danio rerio; details: 0.1 µM
[6] = biological target: T1, Caspase-3/Caspase-7 (Homo sapiens) (UniProt P42574+P55210); test: Activation of caspase-3/7 activity in human 518A2 cells at 25 nM preincubated for 24 hrs followed by caspase-3/7 fluorogenic substrate addition and measured after 60 mins by fluorescence assay; assay type: cell-based; details: filed as activator, time 25.0 hrs
T1 sequence (P42574 whole entry, looked up): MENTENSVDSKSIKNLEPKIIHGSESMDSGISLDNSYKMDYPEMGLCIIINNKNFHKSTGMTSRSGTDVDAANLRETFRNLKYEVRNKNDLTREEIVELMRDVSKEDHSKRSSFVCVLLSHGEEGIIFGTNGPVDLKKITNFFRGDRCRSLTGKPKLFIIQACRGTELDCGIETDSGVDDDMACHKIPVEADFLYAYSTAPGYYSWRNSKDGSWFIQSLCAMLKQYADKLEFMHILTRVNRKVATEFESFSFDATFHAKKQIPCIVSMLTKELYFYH
T1 sequence (P55210 whole entry, looked up): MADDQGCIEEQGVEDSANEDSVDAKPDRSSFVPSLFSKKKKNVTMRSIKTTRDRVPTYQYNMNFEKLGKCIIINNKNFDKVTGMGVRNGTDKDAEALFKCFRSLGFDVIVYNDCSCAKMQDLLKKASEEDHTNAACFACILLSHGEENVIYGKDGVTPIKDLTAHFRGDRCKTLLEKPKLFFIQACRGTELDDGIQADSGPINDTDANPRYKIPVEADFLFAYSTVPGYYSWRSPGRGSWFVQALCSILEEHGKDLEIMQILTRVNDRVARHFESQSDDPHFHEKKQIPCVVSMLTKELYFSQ

[7] = Cytotoxicity against HDFa cells assessed as reduction in cell viability at 0.0005 to 100 uM measured after 72 hrs by MTT assay; assay type: toxicity, cell-based; details: human, dose 0.0005-100 µM
HCT-116 [8] = test: Cytotoxicity against p53-deficient human HCT-116 cells assessed as reduction in cell viability measured after 72 hrs by MTT assay; assay type: functional, cell-based; details: HCT-116, 72 h
518A2 [9] = test: Cell cycle arrest in human […] cells assessed as increase in accumulation at G2/M phase at 25 nM measured after 6 to 24 hrs by propidium iodide staining based FACS analysis; assay type: functional; details: time 6-24 hrs
KB-V1 [10] = test: Cytotoxicity against human multidrug-resistant KB-V1 cells assessed as reduction in cell viability measured after 72 hrs by MTT assay; assay type: functional, cell-based; details: KB-V1, 72 h
518A2 [11] = test: Cell cycle arrest in human […] cells assessed as increase in accumulation at sub-G1 phase at 25 nM measured after 6 to 24 hrs by propidium iodide staining based FACS analysis; assay type: functional; details: time 6-24 hrs
518A2 [12] = test: Cytotoxicity against human 518A2 cells assessed as reduction in cell viability measured after 72 hrs by MTT assay; assay type: functional, cell-based; details: 518A2, 72 h
HCT-116 [13] = test: Cytotoxicity against human HCT-116 cells assessed as reduction in cell viability measured after 72 hrs by MTT assay; assay type: functional, cell-based; details: HCT-116, 72 h
[14] = biological target: T1, Caspase-3/Caspase-7 (Homo sapiens); test: Activation of caspase-3/7 activity in human 518A2 cells at 1 uM preincubated for 6 hrs followed by caspase-3/7 fluorogenic substrate addition and measured after 60 mins by fluorescence assay; assay type: cell-based; details: filed as activator, time 7.0 hrs
Tubulin (Homo sapiens) [15] = biological target: T2, Tubulin (Homo sapiens) (UniProt P68371+Q9H4B7+P0DPH7+P68366+Q13509+Q71U36+P04350+Q3ZCM7+P07437+P68363+Q9BQE3+Q6PEY2+Q13885+Q9BVA1+Q9BUF5); test: Induction of microtubule fragmentation in human 518A2 cells assessed as appearance of area with transverse arcs at 25 nM measured after 24 hrs by immunofluorescence assay; assay type: cell-based
Tubulin (Homo sapiens) [16] = biological target: T2, Tubulin (Homo sapiens); test: Induction of microtubule fragmentation in human 518A2 cells at 25 nM measured after 24 hrs by immunofluorescence assay; assay type: cell-based
Tubulin (Homo sapiens) [17] = biological target: T2, Tubulin (Homo sapiens); test: Induction of microtubule fragmentation in human 518A2 cells assessed as appearance of area with dorsal stress fibre at 25 nM measured after 24 hrs by immunofluorescence assay; assay type: cell-based

Chain of Transcriptional activator Myb (P10242 whole entry): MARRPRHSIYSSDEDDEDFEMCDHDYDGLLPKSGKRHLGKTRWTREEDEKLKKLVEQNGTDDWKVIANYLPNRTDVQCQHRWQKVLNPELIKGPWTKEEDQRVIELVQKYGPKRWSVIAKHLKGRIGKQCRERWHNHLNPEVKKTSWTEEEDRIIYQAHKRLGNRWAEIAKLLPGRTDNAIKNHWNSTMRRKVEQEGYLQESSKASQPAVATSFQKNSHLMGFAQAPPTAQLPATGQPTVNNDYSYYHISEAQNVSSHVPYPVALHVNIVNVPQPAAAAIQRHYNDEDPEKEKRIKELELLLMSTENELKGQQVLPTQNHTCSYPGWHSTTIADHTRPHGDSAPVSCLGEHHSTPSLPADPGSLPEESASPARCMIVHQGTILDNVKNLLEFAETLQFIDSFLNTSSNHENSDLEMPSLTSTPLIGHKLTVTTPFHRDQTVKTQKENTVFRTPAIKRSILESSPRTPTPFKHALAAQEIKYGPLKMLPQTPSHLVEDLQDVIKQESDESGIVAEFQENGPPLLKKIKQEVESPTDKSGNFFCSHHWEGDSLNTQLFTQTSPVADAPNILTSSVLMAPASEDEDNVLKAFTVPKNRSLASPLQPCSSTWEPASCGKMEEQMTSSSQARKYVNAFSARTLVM

SMILES: CN[C@@H]1C[C@H]2O[C@@](C)([C@@H]1OC)n1c3ccccc3c3c4c(c5c6ccccc6n2c5c31)C(=O)NC4
Activity [14]: Active

SMILES: Cc1ccc(C2C(C#N)=C(N)Oc3c2ccc2ccccc32)cc1 (stereo not drawn)
IC50 [1]: 430 nM

SMILES: N#CC1=C(N)Oc2c(ccc3ccccc23)C1c1cccc(S(F)(F)(F)(F)F)c1 (stereo not drawn)
IC50 [1]: 130 nM

SMILES: CNC(=O)c1ccccc1Sc1ccc2c(/C=C/c3ccccn3)n[nH]c2c1 [AXITINIB]
Activity [5]: 19.6%

SMILES: N#CC1=C(N)Oc2c(ccc3ccccc23)C1c1ccc(S(F)(F)(F)(F)F)cc1 (stereo not drawn)
IC50 [1]: 3200 nM

SMILES: N#CC1=C(N)Oc2c(ccc3ccccc23)C1c1ccc(C#N)cc1 (stereo not drawn)
IC50 [1]: 390 nM

Continued, in another order:

IC50 [1]: 16 nM
SMILES: N#CC1=C(N)Oc2c(ccc3ccccc23)C1c1ccc(Cl)c(F)c1 (stereo not drawn)

IC50 [1]: 60 nM | Activity [6]: Active
SMILES: COc1cc(C2C(C#N)=C(N)Oc3c2ccc2ccccc32)cc(OC)c1OC(C)C (stereo not drawn)
IC50 (KB-V1 [2]): 105 nM | IC50 [3]: 53.1 nM | IC50 at 72 h [4]: 65.8 nM | inhibition (Sus scrofa): Active | IC50 (HeLa): 72 nM | IC50 (MCF7): 265 nM | IC50 (HT-29): 4310 nM | Activity [5]: 80.9% | Activity [7]: Toxic | IC50 (HCT-116 [8]): 137 nM | Activity (518A2 [9]): Active | IC50 (KB-V1 [10]): 89 nM | Activity (518A2 [11]): Active | IC50 (518A2 [12]): 266 nM | IC50 (HCT-116 [13]): 274 nM

Activity (Tubulin (Homo sapiens) [15]): Active | IC50 [1]: 14 nM | Activity (Tubulin (Homo sapiens) [16]): Active | Activity [6]: Active | Activity (Tubulin (Homo sapiens) [17]): Active
SMILES: CCOc1c(OC)cc(C2C(C#N)=C(N)Oc3c2ccc2ccccc32)cc1OC (stereo not drawn)
IC50 (KB-V1 [2]): 16.5 nM | IC50 [3]: 10.6 nM | IC50 at 72 h [4]: 6.2 nM | inhibition (Sus scrofa): Active | IC50 (HeLa): 21.9 nM | IC50 (MCF7): 28.1 nM | IC50 (HT-29): 269 nM | Activity [5]: 78.1% | Activity [7]: Toxic | IC50 (HCT-116 [8]): 13.1 nM | Activity (518A2 [9]): Active | IC50 (KB-V1 [10]): 20.9 nM | Activity (518A2 [11]): Active | IC50 (518A2 [12]): 25 nM | IC50 (HCT-116 [13]): 22.7 nM

IC50 [1]: 70 nM
SMILES: N#CC1=C(N)Oc2c(ccc3ccccc23)C1c1cc(F)c(F)c(F)c1 (stereo not drawn)

IC50 [1]: 3700 nM
SMILES: COc1ccc(C2C(C#N)=C(N)Oc3c2ccc2ccccc32)cc1 (stereo not drawn)

IC50 [1]: 50 nM
SMILES: CCOc1c(I)cc(C2C(C#N)=C(N)Oc3c2ccc2ccccc32)cc1OC (stereo not drawn)

IC50 [1]: 130 nM
SMILES: COc1cc(C2C(C#N)=C(N)Oc3c2ccc2ccccc32)c(Br)c(OC)c1OC (stereo not drawn)

Activity (Tubulin (Homo sapiens) [15]): Active | IC50 [1]: 14 nM | Activity (Tubulin (Homo sapiens) [16]): Active | Activity [6]: Active | Activity (Tubulin (Homo sapiens) [17]): Active
SMILES: C=CCOc1c(OC)cc(C2C(C#N)=C(N)Oc3c2ccc2ccccc32)cc1OC (stereo not drawn)
IC50 (KB-V1 [2]): 15.9 nM | IC50 [3]: 5.7 nM | IC50 at 72 h [4]: 15.7 nM | inhibition (Sus scrofa): Active | IC50 (HeLa): 22.2 nM | IC50 (MCF7): 43.3 nM | IC50 (HT-29): 395 nM | Activity [5]: 31.3% | Activity [7]: Toxic | IC50 (HCT-116 [8]): 15.9 nM | Activity (518A2 [9]): Active | IC50 (KB-V1 [10]): 18.7 nM | Activity (518A2 [11]): Active | IC50 (518A2 [12]): 3.6 nM | IC50 (HCT-116 [13]): 193 nM

Reference: ChEMBL document CHEMBL5126678, “A New Naphthopyran Derivative Combines c-Myb Inhibition, Microtubule-Targeting Effects, and Antiangiogenic Properties” (ACS Med Chem Lett, 2022)
